# Experimental data: publication PMC7451048 (Drug metabolism letters, 2019)
# What was measured:
# BCRP = target: T1, BCRP (Homo sapiens, UniProt Q9UNQ0); test: Plasma membrane vesicle transport assay, BCRP vesicles; type: in vitro ADME; conditions: for Difference in BCRP vesicle uptake between ATP and AMP: 10 μM, 1 min (Fig. 9)
# T1 sequence (Q9UNQ0 1-655): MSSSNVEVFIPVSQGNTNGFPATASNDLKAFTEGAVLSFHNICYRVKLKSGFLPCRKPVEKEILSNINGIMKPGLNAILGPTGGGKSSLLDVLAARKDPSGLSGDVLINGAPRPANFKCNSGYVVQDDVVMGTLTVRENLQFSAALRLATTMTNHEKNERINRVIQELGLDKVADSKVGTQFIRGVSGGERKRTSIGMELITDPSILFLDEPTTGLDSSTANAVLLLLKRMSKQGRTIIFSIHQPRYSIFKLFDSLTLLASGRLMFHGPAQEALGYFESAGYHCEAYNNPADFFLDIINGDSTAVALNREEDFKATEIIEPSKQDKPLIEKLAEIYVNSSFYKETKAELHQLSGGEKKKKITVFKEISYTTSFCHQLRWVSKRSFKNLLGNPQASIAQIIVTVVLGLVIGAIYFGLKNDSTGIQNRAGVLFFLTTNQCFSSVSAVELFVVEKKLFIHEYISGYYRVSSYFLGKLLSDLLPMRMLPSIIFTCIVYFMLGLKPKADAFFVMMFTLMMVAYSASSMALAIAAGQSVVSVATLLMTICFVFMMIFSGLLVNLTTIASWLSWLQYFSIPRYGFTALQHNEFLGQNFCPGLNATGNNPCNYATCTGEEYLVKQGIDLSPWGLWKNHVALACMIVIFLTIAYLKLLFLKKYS
# OATP1B1 [1] = target: T2, OATP1B1 (Homo sapiens, UniProt Q9Y6L6); conditions: 3 min; for Inhibition of cellular uptake by RIF, OATP1B1-overexpressing cells: 20 μM RIF, BUP 5 μM, OHB 10 μM, TB 20 μM, EB 30 μM; for Apparent Vmax: net cellular uptake, CHO/OATP1B1-overexpressing cells, mean ± SD
# T2 sequence (Q9Y6L6 1-691): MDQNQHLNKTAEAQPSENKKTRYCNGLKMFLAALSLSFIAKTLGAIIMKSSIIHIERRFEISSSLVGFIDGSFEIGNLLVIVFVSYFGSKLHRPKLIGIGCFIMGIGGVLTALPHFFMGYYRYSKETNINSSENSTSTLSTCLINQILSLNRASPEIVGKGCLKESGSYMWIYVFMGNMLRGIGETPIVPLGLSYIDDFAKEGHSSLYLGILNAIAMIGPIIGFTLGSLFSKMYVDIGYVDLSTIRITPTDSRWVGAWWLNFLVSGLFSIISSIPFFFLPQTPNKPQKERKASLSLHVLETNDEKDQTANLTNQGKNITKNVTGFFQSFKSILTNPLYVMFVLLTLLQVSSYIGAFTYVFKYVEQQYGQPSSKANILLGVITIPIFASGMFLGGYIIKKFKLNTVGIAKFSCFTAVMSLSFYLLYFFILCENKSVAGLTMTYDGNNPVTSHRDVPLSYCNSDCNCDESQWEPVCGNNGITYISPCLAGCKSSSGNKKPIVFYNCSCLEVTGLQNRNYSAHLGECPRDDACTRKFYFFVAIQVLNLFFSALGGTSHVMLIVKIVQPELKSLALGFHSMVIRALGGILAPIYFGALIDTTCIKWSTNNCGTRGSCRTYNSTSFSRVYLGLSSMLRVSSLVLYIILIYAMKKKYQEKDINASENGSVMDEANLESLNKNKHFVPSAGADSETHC
# OATP1B1 [2] = target: T2, OATP1B1
# OATP1B3 = target: T3, OATP1B3 (Homo sapiens, UniProt Q9NPD5); conditions: 3 min; for Inhibition of cellular uptake by RIF, OATP1B3-overexpressing cells: 20 μM RIF, BUP 5 μM, OHB 30 μM, TB 10 μM, EB 5 μM; for Apparent Vmax / Km: net cellular uptake, CHO/OATP1B3-overexpressing cells, mean ± SD; for Km: read-out: Apparent Km
# T3 sequence (Q9NPD5 1-702): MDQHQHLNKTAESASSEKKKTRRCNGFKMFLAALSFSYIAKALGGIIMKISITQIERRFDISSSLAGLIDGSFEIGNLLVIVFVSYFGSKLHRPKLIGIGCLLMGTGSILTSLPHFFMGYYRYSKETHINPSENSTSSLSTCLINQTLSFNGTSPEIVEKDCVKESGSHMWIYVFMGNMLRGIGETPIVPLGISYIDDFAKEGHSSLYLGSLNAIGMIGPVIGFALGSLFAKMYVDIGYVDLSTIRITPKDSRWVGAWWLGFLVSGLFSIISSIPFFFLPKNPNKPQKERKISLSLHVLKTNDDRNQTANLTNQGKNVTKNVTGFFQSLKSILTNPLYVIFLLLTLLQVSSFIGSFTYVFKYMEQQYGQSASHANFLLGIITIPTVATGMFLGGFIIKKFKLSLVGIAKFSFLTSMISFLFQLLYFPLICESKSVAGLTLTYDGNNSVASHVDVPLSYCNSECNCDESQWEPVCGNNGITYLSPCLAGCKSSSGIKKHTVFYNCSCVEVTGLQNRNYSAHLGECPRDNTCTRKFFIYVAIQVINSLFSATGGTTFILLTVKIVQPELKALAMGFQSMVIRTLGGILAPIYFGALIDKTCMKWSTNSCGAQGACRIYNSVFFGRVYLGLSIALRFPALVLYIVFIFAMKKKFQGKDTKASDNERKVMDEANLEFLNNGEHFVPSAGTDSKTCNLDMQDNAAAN
Structure (SMILES),Substrate of BCRP (conclusion) (BCRP),Difference in BCRP vesicle uptake between ATP and AMP (BCRP),"Inhibition of cellular uptake by RIF, OATP1B1-overexpressing cells (OATP1B1 [1])",Apparent Vmax (OATP1B1 [1]) [pmol/mg protein/min],Substrate of OATP1B1 (conclusion) (OATP1B1 [2]),"Inhibition of cellular uptake by RIF, OATP1B3-overexpressing cells (OATP1B3)",Apparent Vmax (OATP1B3) [pmol/mg protein/min],Km (OATP1B3) [µM]
"CC(NC(C)(C)C)C(O)c1cccc(Cl)c1 (stereo not drawn) [EB, Erythrohydrobupropion]",not substrates,No significant differences,no statistically significant differences,1806±133,not substrates,no statistically significant differences,1026±37,14 ± 2
"C[C@H]1NC(C)(C)CO[C@]1(O)c1cccc(Cl)c1 [OHB, Hydroxybupropion]",not substrates,No significant differences,no statistically significant differences,1423 ± 49,not substrates,no statistically significant differences,1258±86,76 ± 14
"C[C@H](NC(C)(C)C)[C@@H](O)c1cccc(Cl)c1 [TB, Threohydrobupropion]",not substrates,No significant differences,no statistically significant differences,1351±55,not substrates,no statistically significant differences,2536±97,21 ± 3
